Results reported in patent publication US20140212502A1, “NANO- AND MICRO-BUBBLES WITH ULTRASOUND-TRIGGERED RELEASE AND IMAGING FUNCTIONALITIES” (NATIONAL YANG-MING UNIVERSITY, priority 2013, published 2014).

Experiments:
[1] = system: breast tumor cells (MDA-MB-231); test: In vitro cytotoxicity, cell viability by MTT assay; assay type: cell-based; settings: with sonication for 20 min, then 24 hr culture; 75 μL NB suspension or CPT 1.3 μg/mL
Experimental: FIG. 6 is a diagram showing the cell viability of breast tumor cells (MDA-MB-231) cultured under different conditions. In FIG. 6(a), the control group was performed on the cells cultured without adding the model drug (CPT) and performing sonication. In FIG. 6(b), cells were sonicated for 20 min. In FIG. 6(c), cells were cultured with the medium containing 75 μL of CPT-loaded CHC/SPIO NB suspension without sonication for 20 min. In FIG. 6(d), cells were cultured with the medium containing 75 μL of CPT-loaded CHC/SPIO NB suspension with sonication for 20 min. In FIG. 6(e), cells were cultured with CPT-containing medium (CPT/medium concentration: 1.3 μg/mL) under sonication for 20 min. […] After above treatments, the cell mediums were removed and the cells were washed with PBS. Then, fresh medium was added and further cultured for 24 hr. The cell viability was measured by MTT assay.
Thus, CPT molecules could efficiently access tumor cells. Moreover, the amphiphilic CHC molecules from ruptured bubbles also might be helpful to increase transmembrane permeation.

[2] = Release test with and without sonication, confocal microscope observation of leakage and dispersion; assay type: physicochemical; settings: sonication 1 MHz, 1 W/cm^2, duty ratio 20%, 20 min
Experimental: FIG. 5 is a diagram showing the confocal microscope observation for CPT-loaded CHC/SPIO NBs (FIG. 5(a)) and FITC-loaded CHC/SPIO NBs (FIG. 5(b), indicated by arrows). […] FIGS. 5(d) and (e) show the confocal microscope observation for CPT-loaded CHC/SPIO NBs after the release test without sonication and with sonication (ultrasonic frequency: 1 MHz, power density: 1 W/cm^2, duty ratio: 20%) for 20 min, respectively. […] Scale bar 5 μm.
The confocal photographs of the as-received CHC/SPIO MBs loaded with hydrophobic agent (CPT, blue fluorescence) and hydrophilic agent (FITC, green fluorescence) are shown in FIGS. 5(a) and 5(b), respectively. […] This implies that CHC/SPIO MBs can carry both hydrophobic and hydrophilic agents, and the encapsulation ability of CHC/SPIO MBs for CPT (a hydrophobic agent) was better than that for FITC (a hydrophilic agent). […] This was not observed for the CPT-containing medium (without CHC) under the same sonication for 20 min.

CC[C@@]1(O)C(=O)OCc2c1cc1n(c2=O)Cc2cc3ccccc3nc2-1 [CPT, camptothecin]
cytotoxicity / cell viability [1]: higher viability than those treated with CPT-loaded CHC/SPIO NBs under sonication
dispersion of CPT in hydrophilic medium [2]: not well-dispersed under sonication
